Our source for the IC50 values is patent publication US20260200920A1, “SUBSTITUTED AMINOPYRIDINE COMPOUNDS FOR USE AS AKT1 INHIBITORS” (Atavistik Bio, Inc., priority 2023, published 2026).

For test [1], the target named is T1, human recombinant kinase full-length AKT1 E17K (Homo sapiens, UniProt P31749, E17K).
T1 construct: Purified human recombinant kinase full-length AKT1 E17K was expressed in insect cells; made in house; host or cells: insect cells
Put plainly: AKT1 E17K kinase assay (TR-FRET, Lance). Type of test: biochemical. To be noted: 0.6 nM AKT1 E17K, 50 nM Ulight-CREBtide, either 50 μM ATP or 2 mM ATP, 60 min at RT. An outline of the steps: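 Full-length AKT1 E17K from insect cells, PDPK1-activated, at 0.6 nM with 50 nM Ulight-CREBtide and 50 μM or 2 mM ATP, pH 7.5, 1% DMSO. Enzyme and compound preincubated 15 min, reaction run 60 min at RT; Eu-anti-phospho-CREB (Ser133) TR-FRET 665/620 ratio, 10-point curve, IC50 by 4-parameter fit.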

Test [2] addresses T2, human recombinant kinase full-length wildtype AKT1 (Homo sapiens, UniProt P31749).
T2 construct: Purified human recombinant kinase full-length wildtype AKT1 was expressed in insect cells; made in house; host or cells: insect cells
Put plainly: AKT1 kinase assay (wildtype, TR-FRET, Lance). Type of test: biochemical. To be noted: 0.6 nM wildtype AKT1, 50 nM Ulight-CREBtide, either 50 μM ATP or 2 mM ATP, 60 min at RT. In outline:
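Insect-cell-expressed full-length human AKT1, PDPK1-activated (0.6 nM), preincubated with compound 15 min at RT, then reacted 60 min at RT with 50 nM ULight-CREBtide and 50 μM or 2 mM ATP (pH 7.5, 1% DMSO). Phospho-CREBtide read by Eu-anti-phospho-Ser133 TR-FRET (665/620 ratio); IC50 from 10-point 4-parameter fit.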
In general terms: TR-FRET usually uses a lanthanide donor and a delayed reading to cut background.

T2 sequence (P31749 whole entry): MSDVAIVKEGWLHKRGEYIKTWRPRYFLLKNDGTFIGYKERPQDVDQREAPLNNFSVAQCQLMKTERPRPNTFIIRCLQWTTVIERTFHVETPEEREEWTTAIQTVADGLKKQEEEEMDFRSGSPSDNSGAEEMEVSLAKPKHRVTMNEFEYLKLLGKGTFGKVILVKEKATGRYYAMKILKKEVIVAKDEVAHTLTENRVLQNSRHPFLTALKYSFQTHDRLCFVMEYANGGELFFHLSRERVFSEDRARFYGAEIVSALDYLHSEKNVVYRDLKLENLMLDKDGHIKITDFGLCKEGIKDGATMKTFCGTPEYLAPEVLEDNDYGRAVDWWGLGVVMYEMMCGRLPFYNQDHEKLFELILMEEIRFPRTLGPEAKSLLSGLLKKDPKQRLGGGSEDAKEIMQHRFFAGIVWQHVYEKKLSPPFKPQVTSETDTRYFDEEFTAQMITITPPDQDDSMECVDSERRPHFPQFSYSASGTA
T1 sequence (P31749 whole entry E17K): as the sequence (P31749 whole entry) above, with E17K counted along it

As usually defined, the IC50 is the point on the concentration scale where inhibition reaches its midpoint. Take `Nc1ncccc1-c1nc2ccc(-c3ccccc3)nc2n1-c1ccc(C(=O)N[C@H]2CC[C@H](C(=O)O)CC2)nc1` [Compound I-19, (1r,4r)-4-(5-(2-(2-aminopyridin-3-yl)-5-phenyl-3H-imidazo[4,5-b]pyridin-3-yl)picolinamido)cyclohexane-1-carboxylic acid]: the figures for the IC50 in test [1] and in test [2] were at least 2000 nM and under 20 µM, respectively.
`CN(Cc1ccc(-n2c(-c3cccnc3N)nc3ccc(-c4ccccc4)nc32)cc1)[C@H]1CC[C@H](C(=O)O)CC1` [Compound I-96, (1r,4r)-4-((4-(2-(2-aminopyridin-3-yl)-5-phenyl-3H-imidazo[4,5-b]pyridin-3-yl)benzyl)(methyl)amino)cyclohexane-1-carboxylic acid]: the IC50 in test [1] is under 500 nM; in test [2] it was under 20 µM.
On to `Cc1nc(NC[C@H]2CC[C@H](C(=O)O)CC2)ccc1-n1c(-c2cccnc2N)nc2ccc(-c3ccccc3)nc21` [Compound I-131, (1r,4r)-4-(((5-(2-(2-aminopyridin-3-yl)-5-phenyl-3H-imidazo[4,5-b]pyridin-3-yl)-6-methylpyridin-2-yl)amino)methyl)cyclohexane-1-carboxylic acid], for which the half-inhibitory concentration (IC50) is 500 to 2000 nM in test [1] and under 20 µM in test [2].
Turning to `Nc1ncccc1-c1nc2ccc(-c3ccccc3)nc2n1-c1ccc(CN2CCC(CC(=O)O)CC2)cc1` [Compound I-97, 2-(1-(4-(2-(2-aminopyridin-3-yl)-5-phenyl-3H-imidazo[4,5-b]pyridin-3-yl)benzyl)piperidin-4-yl)acetic acid], the IC50 in test [1] was 500 to 2000 nM; in test [2], under 20 µM.
For `Nc1ncccc1-c1nc2ccc(-c3ccccc3)nc2n1-c1ccc(N2CC3(CC(C(=O)O)C3)C2)nc1` [Compound I-107, 2-(5-(2-(2-aminopyridin-3-yl)-5-phenyl-3H-imidazo[4,5-b]pyridin-3-yl)pyridin-2-yl)-2-azaspiro[3.3]heptane-6-carboxylic acid] the same measures were at least 2000 nM and under 20 µM.
In the case of `CN(Cc1ccc(-n2c(-c3cccnc3N)nc3ccc(-c4ccccc4)nc32)cc1)[C@H]1CC[C@H](C(N)=O)CC1` [Compound I-187, trans-4-((4-(2-(2-aminopyridin-3-yl)-5-phenyl-3H-imidazo[4,5-b]pyridin-3-yl)benzyl)(methyl)amino)cyclohexane-1-carboxamide], the concentration for half-maximal inhibition (IC50) in test [1] was at least 2000 nM; in test [2], under 20 µM.
As for `CNC(=O)[C@H]1CC[C@H](N(C)Cc2ccc(-n3c(-c4cccnc4N)nc4ccc(-c5ccccc5)nc43)cc2)CC1` [Compound I-186, trans-4-((4-(2-(2-aminopyridin-3-yl)-5-phenyl-3H-imidazo[4,5-b]pyridin-3-yl)benzyl)(methyl)amino)-N-methylcyclohexane-1-carboxamide], the 50% inhibitory concentration (IC50) in test [1] was at least 2000 nM; in test [2], under 20 µM.
Turning to `Nc1ncccc1-c1nc2ccc(-c3ccccc3)nc2n1-c1ccc(N2CCC(C(=O)O)C2)nc1` (stereo not drawn) [Compound I-25, 1-(5-(2-(2-aminopyridin-3-yl)-5-phenyl-3H-imidazo[4,5-b]pyridin-3-yl)pyridin-2-yl)pyrrolidine-3-carboxylic acid], the concentration for half-maximal inhibition (IC50) was 500 to 2000 nM in test [1] and under 20 µM in test [2].
For `Cc1nc(NC(=O)[C@H]2CC[C@H](C(=O)O)CC2)ccc1-n1c(-c2cccnc2N)nc2ccc(-c3cccc(F)c3)nc21` [Compound I-214], the IC50 was under 500 nM in test [1] and under 20 µM in test [2].
For `Cc1nc(N[C@H]2CC[C@H](C(=O)O)CC2)ccc1-n1c(-c2cccnc2N)nc2ccc(-c3ccccc3)nc21` [Compound I-121, (1r,4r)-4-((5-(2-(2-aminopyridin-3-yl)-5-phenyl-3H-imidazo[4,5-b]pyridin-3-yl)-6-methylpyridin-2-yl)amino)cyclohexane-1-carboxylic acid] the same measures were under 500 nM and under 20 µM.
For `Nc1ncccc1-c1nc2ccc(-c3ccc(F)cc3)nc2n1-c1ccc(C2CN(C[C@H]3CC[C@H](C(=O)O)CC3)C2)cc1` [Compound I-66, (1r,4r)-4-((3-(4-(2-(2-aminopyridin-3-yl)-5-(4-fluorophenyl)-3H-imidazo[4,5-b]pyridin-3-yl)phenyl)azetidin-1-yl)methyl)cyclohexane-1-carboxylic acid], the half-inhibitory concentration (IC50) in test [1] is 500 to 2000 nM; in test [2], under 20 µM.
Turning to `Nc1ncccc1-c1nc2ccc(-c3ccccc3)nc2n1-c1ccc(N[C@H]2CC[C@@H](C(=O)O)CC2)nc1` (single isomer, unassigned) [Compound I-15, (1s,4s)-4-((5-(2-(2-aminopyridin-3-yl)-5-phenyl-3H-imidazo[4,5-b]pyridin-3-yl)pyridin-2-yl)amino)cyclohexane-1-carboxylic acid], the figures for the concentration for half-maximal inhibition (IC50) in test [1] and in test [2] were at least 2000 nM and under 20 µM, respectively.
On to `CC1(C)CC(C(=O)O)CCC1CN1CCC(c2ccc(-n3c(-c4cccnc4N)nc4ccc(-c5ccccc5)nc43)cc2)CC1` (stereo not drawn) [Compound I-194], for which the values for the IC50 in test [1] and in test [2] were 500 to 2000 nM and under 20 µM, respectively.
As to `CC1(C)C[C@H](CN2CC(c3ccc(-n4c(-c5cccnc5N)nc5ccc(-c6ccccc6)nc54)cc3)C2)CC[C@@H]1C(=O)O` [Compound I-70, (1S,4R)-4-((3-(4-(2-(2-aminopyridin-3-yl)-5-phenyl-3H-imidazo[4,5-b]pyridin-3-yl)phenyl)azetidin-1-yl)methyl)-2,2-dimethylcyclohexane-1-carboxylic acid], the results for the concentration for half-maximal inhibition (IC50) in test [1] and in test [2] were under 500 nM and under 20 µM, respectively.
As for `CC(C(=O)O)C1CCN(Cc2ccc(-n3c(-c4cccnc4N)nc4ccc(-c5ccccc5)nc43)cc2)CC1` (stereo not drawn) [Compound I-98, 2-(1-(4-(2-(2-aminopyridin-3-yl)-5-phenyl-3H-imidazo[4,5-b]pyridin-3-yl)benzyl)piperidin-4-yl)propanoic acid], the concentration for half-maximal inhibition (IC50) in test [1] was at least 2000 nM; in test [2] it was under 20 µM.
On to `CC1(c2ccc(-n3c(-c4cccnc4N)nc4ccc(-c5ccccc5)nc43)cc2)CN(C[C@H]2CC[C@H](C(=O)O)CC2)C1` [Compound I-154], for which the figures for the concentration for half-maximal inhibition (IC50) in test [1] and in test [2] were 500 to 2000 nM and under 20 µM, respectively.
For the compound `CC(c1ccc(-n2c(-c3cccnc3N)nc3ccc(-c4ccccc4)nc32)cc1)N(C)[C@H]1CC[C@@H](C(=O)O)CC1` (stereo partly drawn) [Compound I-177], the IC50 in test [1] was 500 to 2000 nM; in test [2] it was under 20 µM.
For `CC1(C)C[C@H](C(=O)O)CC[C@@H]1CN1CC(c2ccc(-n3c(-c4cccnc4N)nc4ccc(-c5ccccc5)nc43)cc2)C1` (stereo in doubt) [Compound I-144] the same measures were under 500 nM and under 20 µM.
Regarding `Nc1ncccc1-c1nc2ccc(-c3ccccn3)cc2n1-c1ccc(C2CN(C[C@H]3CC[C@H](C(=O)O)CC3)C2)cc1` [Compound I-68, (1r,4r)-4-((3-(4-(2-(2-aminopyridin-3-yl)-6-(pyridin-2-yl)-1H-benzo[d]imidazol-1-yl)phenyl)azetidin-1-yl)methyl)cyclohexane-1-carboxylic acid], the half-inhibitory concentration (IC50) in test [1] is at least 2000 nM; in test [2], under 20 µM.
In the same order, the values of `Nc1ncccc1-c1nc2ccc(-c3ccccc3F)nc2n1-c1ccc(C2CN(C[C@H]3CC[C@H](C(=O)O)CC3)C2)cc1` [Compound I-213] are under 500 nM and under 20 µM.
As for `Cc1ccccc1-c1ccc2nc(-c3cccnc3N)n(-c3ccc(C4CN(C[C@H]5CC[C@H](C(=O)O)CC5)C4)cc3)c2n1` [Compound I-212], the IC50 was 500 to 2000 nM in test [1] and under 20 µM in test [2].
For `Cc1cc(C2CN(C[C@H]3CC[C@H](C(=O)O)CC3)C2)ccc1-n1c(-c2cccnc2N)nc2ccc(-c3ccccc3)cc21` [Compound I-223], the figures for the IC50 in test [1] and in test [2] were at least 2000 nM and under 20 µM, respectively.
For `Nc1ncccc1-c1nc2ccc(-c3ccccc3)nc2n1-c1ccc(NC(=O)C2CC3(CC(C(=O)O)C3)C2)cc1` (stereo not drawn) [Compound I-46, 6-[[4-[2-(2-amino-3-pyridyl)-5-phenyl-imidazo[4,5-b]pyridin-3-yl]phenyl]carbamoyl]spiro[3.3]heptane-2-carboxylic acid] the same measures were under 500 nM and under 20 µM.
As to `Cc1ccccc1-c1ccc2nc(-c3cccnc3N)n(-c3ccc(C4CN(C[C@H]5CC[C@H](C(=O)O)CC5)C4)cc3C)c2n1` [Compound I-211], the figures for the half-maximal inhibitory concentration (IC50) in test [1] and in test [2] were at least 2000 nM and under 20 µM, respectively.
For `Cc1nc(-n2c(-c3cccnc3N)nc3ccc(-c4ccccn4)cc32)ccc1NC(=O)[C@H]1CC[C@H](C(=O)O)CC1` [Compound I-133, (1r,4r)-4-((6-(2-(2-aminopyridin-3-yl)-6-(pyridin-2-yl)-1H-benzo[d]imidazol-1-yl)-2-methylpyridin-3-yl)carbamoyl)cyclohexane-1-carboxylic acid] the same measures were at least 2000 nM and under 20 µM.
With `CC(C)(C(=O)O)C1CCN(Cc2ccc(-n3c(-c4cccnc4N)nc4ccc(-c5ccccc5)nc43)cn2)CC1` [Compound I-135, 2-(1-((5-(2-(2-aminopyridin-3-yl)-5-phenyl-3H-imidazo[4,5-b]pyridin-3-yl)pyridin-2-yl)methyl)piperidin-4-yl)-2-methylpropanoic acid], the results for the 50% inhibitory concentration (IC50) in test [1] and in test [2] were at least 2000 nM and under 20 µM, respectively.
In the same order, the values of `CN(Cc1ccc(-n2c(-c3cccnc3N)nc3ccc(-c4ccccc4)nc32)cc1)[C@H]1CC[C@H](CC(=O)O)CC1` [Compound I-169] are under 500 nM and under 20 µM.
